The experiment addresses T1, recombinant human Meningioma Expressed Antigen 5 (MGEA5), also referred to as O-GlcNAcase (OGA) (Homo sapiens, UniProt O60502).
T1 construct: Full length OGA enzyme was purchased at OnGene (cat #TP322411); purchased OnGene (so in the source)
T1 sequence (O60502 1-916): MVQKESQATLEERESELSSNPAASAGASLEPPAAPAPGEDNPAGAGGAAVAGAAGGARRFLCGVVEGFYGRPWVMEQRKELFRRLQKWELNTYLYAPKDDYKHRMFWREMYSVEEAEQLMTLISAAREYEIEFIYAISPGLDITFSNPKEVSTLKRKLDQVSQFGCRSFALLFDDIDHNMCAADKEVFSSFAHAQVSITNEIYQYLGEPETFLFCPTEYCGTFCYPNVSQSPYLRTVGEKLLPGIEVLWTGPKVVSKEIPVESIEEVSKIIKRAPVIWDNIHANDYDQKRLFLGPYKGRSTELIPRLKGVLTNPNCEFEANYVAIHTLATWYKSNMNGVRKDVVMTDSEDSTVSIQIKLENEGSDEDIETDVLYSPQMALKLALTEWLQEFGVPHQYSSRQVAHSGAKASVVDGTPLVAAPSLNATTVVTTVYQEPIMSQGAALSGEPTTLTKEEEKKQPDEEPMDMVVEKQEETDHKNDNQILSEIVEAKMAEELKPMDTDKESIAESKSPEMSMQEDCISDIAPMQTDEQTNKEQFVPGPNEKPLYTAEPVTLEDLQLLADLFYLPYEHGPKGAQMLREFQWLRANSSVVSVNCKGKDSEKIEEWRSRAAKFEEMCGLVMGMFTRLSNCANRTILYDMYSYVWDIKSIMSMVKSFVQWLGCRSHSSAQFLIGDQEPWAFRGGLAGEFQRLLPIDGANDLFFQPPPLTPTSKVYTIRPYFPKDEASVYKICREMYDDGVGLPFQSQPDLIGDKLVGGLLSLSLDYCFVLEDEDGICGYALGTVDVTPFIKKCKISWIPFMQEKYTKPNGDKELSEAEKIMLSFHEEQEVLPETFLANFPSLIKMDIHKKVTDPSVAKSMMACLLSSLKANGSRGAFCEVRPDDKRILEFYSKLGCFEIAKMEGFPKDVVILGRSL
In words: OGA biochemical assay (inhibition of FM-GlcNAc hydrolysis, fluorescence). The settings on record: for Emax: maximal effect, read-out: Enzymatic Emax (%); for IC50: read-out: Enzymatic hOGA, pIC50 (converted). The gist of the method: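 Full-length recombinant OGA (2 nM) pre-incubated with compound 60 min at room temperature, then FM-GlcNAc (100 µM final) added in citrate/phosphate buffer pH 7.2 with 0.005% Tween-20. After 6 h at room temperature, stopped with carbonate pH 11.0; fluorescein read at 485/538 nm; IC50 and Hill coefficient from curve fit.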

For orientation: Emax means the maximal effect, on the per cent scale that the assay sets.

Structures are written as SMILES.

With `Cc1cc(OC[C@H]2CCCN(C(C)c3nc4c(cc3F)OCCO4)C2)cc(C)n1` (single isomer, unassigned) [Product 155], the Emax was 99% and the IC50 is 1.26 nM.

On to `Cc1cc([C@H]2CCCN(C(C)c3cnc4c(c3)OCCN4)C2)cc(C)n1` (single isomer, unassigned) [Product 135], for which the Emax was found to be 101% and the IC50 was 7.94 nM.

(Values after patent US20210300943A1, “OGA INHIBITOR COMPOUNDS” (Janssen Pharmaceutica NV, priority 2018, published 2021).)
